Measured values published in patent US10472686B2, “Mechanisms of antimicrobial susceptibility” (Roche Molecular Systems, Inc., priority 2015, dated 2019).

Legend:
NDM-1-expressing E. coli [1] = format: cell-based; conditions: Smarticles assay, clinical isolates
Experimental: (§1) Thus, the ability to quickly detect viable Gram-negative bacteria, determine their susceptibility to carbapenems, and distinguish between carbapenem resistance mechanisms could aid physicians in considering such therapeutic options in the future. […] In this study, a Smarticles™ assay was evaluated for its ability to detect carbapenem resistant E. coli and distinguish between NDM-1 and KPC-expressing organisms.
(§2) Methods: 26 clinical isolates of E. coli, Klebsiella spp., Enterobacter spp., Citrobacter spp., Proteus spp., and S. marcescens were evaluated using the Smarticles™ assay and ertapenem disk diffusion. CRE isolates included organisms expressing blaKPC and blaNDM-1. The Smarticles™ assay was used with the addition of the chelating agent edetic acid (EDTA) and β-lactamase inhibitor boronic acid to scrutinize clinical isolates of E. coli expressing NDM-1 and KPC.

KPC-expressing E. coli [2] = assay: Smarticles live cell luminescence assay with inhibitors (Example 4); format: cell-based; conditions: clinical isolates
Experimental: as §1, §2

NDM-1-expressing E. coli [3] = assay: NRTP luciferase live cell reporter assay, NDM-1 detection (Example 1); format: cell-based; conditions: 2 hours at 37° C.; for luminescence signal (% RLU normalized to No Antibiotic): FIG. 2
Experimental: An NDM-1 detection assay is produced using a luciferase-expressing non-replicative transduction particle specific to Enterobacteriaceae (as described in PCT/US2014/026536, Example 1), ertapenem, and the chelator Ethylenediaminetetraacetic acid (EDTA).
A culture of a clinical isolate of an NDM-1-expressing E. coli was prepared in LB media and used to determine the response of the NRTP reporter in the presence of ertapenem, EDTA, and Zinc. The assay was prepared by mixing 50 μL of the cell culture at an OD600 of 0.02 to 50 μL of LB media and 100 μL of NRTP reagent prepared in a microwell plate. The assay was incubated for 2 hours at 37° C. under the following conditions: (1) No additives, (2) with the addition of ertapenem at 0.25 μg/mL, (3) with the addition of ertapenem and EDTA at 750 μg/mL, and (4) with the addition of ertapenem and Zinc sulfate at 70 μg/mL. After the incubation, the samples were assayed for luminescence after the injection of a nonanal reagent as a substrate for the live cell reporter using a Molecular Devices SpectraMax L luminometer.
The luminescence readings were then normalized to those produced by sample (1) and plotted as a percentage relative to sample (1) as shown in FIG. 2.

[4] = system: Class A carbapenemases (e.g. KPC); conditions: background statement; cited from earlier work
[5] = system: Class B carbapenemases (e.g. NDM-1); conditions: background statement; cited from earlier work
KPC-expressing E. coli [6] = assay: NRTP luciferase live cell reporter assay, KPC detection (Example 2); format: cell-based; conditions: 2 hours at 37° C.
Experimental: In another embodiment of the invention, a KPC detection assay is produced using a luciferase-expressing non-replicative transduction particle specific to Enterobacteriaceae as described in PCT/US2014/026536, Example 1, ertapenem and the β-lactamase inhibitor boronic acid.
A culture of a clinical isolate of a KPC-expressing E. coli was prepared in LB media and used to determine the response of the NRTP reporter in the presence of ertapenem, and boronic acid. The replicates of the assay were prepared mixing 50 μL of the cell culture at an OD600 of 0.02 to 50 μL of LB media and 100 μL of NRTP reagent prepared in a microwell plate. The assay was incubated for 2 hours at 37° C. under the following conditions: (1) No additives, (2) with the addition of ertapenem at 1 μg/mL, and (3) with the addition of ertapenem and phenyl boronic acid 400 μg/mL. After the incubation, the samples were assayed for luminescence after the injection of a nonanal reagent as a substrate for the live cell reporter using a Molecular Devices SpectraMax L luminometer.
The luminescence readings were then normalized to those produced by sample (1) and plotted as the average percentage relative to sample (1) as shown in FIG. 1.

For `O=C(O)CN(CCN(CC(=O)O)CC(=O)O)CC(=O)O` [EDTA, Ethylenediaminetetraacetic acid], the “assay signal in the presence of the inhibitor” value (shortened to “assay signal … of the inhibitor”) (NDM-1-expressing E. coli [1]) was “inhibited”, the “assay signal … of the inhibitor” value (KPC-expressing E. coli [2]) was “not inhibited” and the “luminescence signal (% RLU normalized to No Antibiotic)” value (NDM-1-expressing E. coli [3]; ertapenem 0.25 μg/mL and EDTA 750 μg/mL) was “significantly decreased”.
For `O=C(NC1CCNCC1)[C@@H]1CC[C@@H]2CN1C(=O)N2OS(=O)(=O)O` [Relebactam], the “activity against Class A carbapenemases” value [4] is listed as “shown activity” and the “activity against Class B carbapenemases” value [5] is listed as “not against”.
For `O=S(=O)([O-])[O-].[Zn+2]` [Zinc, Zinc sulfate], the “luminescence signal (% RLU normalized to No Antibiotic)” value (NDM-1-expressing E. coli [3]; ertapenem 0.25 μg/mL and Zinc sulfate 70 μg/mL) was “significantly increased”.
In the case of `OB(O)c1ccccc1` [boronic acid, phenyl boronic acid], the “luminescence signal (% RLU normalized to No Antibiotic)” value (KPC-expressing E. coli [6]; ertapenem 1 μg/mL and phenyl boronic acid 400 μg/mL) is reported as “significantly decreased”, the “assay signal … of the inhibitor” value (NDM-1-expressing E. coli [1]) is reported as “not inhibited” and the “assay signal … of the inhibitor” value (KPC-expressing E. coli [2]) is reported as “inhibited”.
For `C[C@@H](O)[C@H]1C(=O)N2C(C(=O)O)=C(S[C@@H]3CN[C@H](C(=O)Nc4cccc(C(=O)O)c4)C3)[C@H](C)[C@H]12` [ertapenem], the “luminescence signal (% RLU normalized to No Antibiotic)” value (KPC-expressing E. coli [6]; ertapenem 1 μg/mL alone) was “not significantly decreased”, the susceptibility phenotype (KPC-expressing E. coli [6]; ertapenem 1 μg/mL) was “non-susceptible” and the “luminescence signal (% RLU normalized to No Antibiotic)” value (NDM-1-expressing E. coli [3]; ertapenem 0.25 μg/mL alone) was “not significantly decreased”. For the same molecule, the susceptibility phenotype (NDM-1-expressing E. coli [3]; ertapenem 0.25 μg/mL) was “non-susceptible”.
